Among the data in patent US7153863B2, “Therapeutic compounds based on pyrazolopyridline derivatives” (SmithKline Beecham Corporation, priority 2002, dated 2006) are IC50 values, retold here.

SMILES strings stand for the structures.

The subject of this test is HSV-1. Nature of the test: HSV-1 infection of Vero 76 cells, HSV DNA hybridization capture assay. Format: cell-based, herpes simplex virus 1. Conditions: Human alphaherpesvirus 1; HSV-1 (MOI=0.001) in Vero 76 cells, 40–48 hours at 37° C., viral DNA by hybridization/chemiluminescence. The procedure:
Vero 76 cells were maintained in MEM with Earle's salts, L-glutamine, 8% FBS (Hyclone, A-1111-L) and 100 units/mL Penicillin-100 μg/mL Streptomycin. For assay conditions, FBS was reduced to 2%. Cells are seeded into 96-well tissue culture plates at a density of 5×10^4 cells/well after being incubated for 45 min at 37° C. in the presence of HSV-1 or HSV-2 (MOI=0.001). Test compounds are added to the wells and the plates are incubated at 37° C. for 40–48 hours. Cell lysates are prepared as follows: media was removed and replaced with 150 μL/well 0.2 N NaOH with 1% Igepal CA 630 or NP-40. Plates were incubated up to 14 days at room temperature in a humidified chamber to prevent evaporation.
For the detection probe, a gel-purified, digoxigenin-labeled, […] PCR fragment of the HSV UL-15 sequence was utilized. PCR conditions included 0.5 μM primers, 180 μM dTP, 20 μM dUTP-digoxigenin (Boehringer Mannheim 1558706), 200 μM each of dATP, dCTP, and dGTP, 1×PCR Buffer II (Perkin Elmer), 2.5 mM MgCl2, 0.025 units/μL of AmpliTaq Gold polymerase (Perkin Elmer), and 5 ng of gel-purified HSV DNA per 100 μL Extension conditions were 10 min at 95° C., followed by 30 cycles of 95° C. for 1 min, 55° C. for 30 sec, and 72° C. for 2 min. The amplification was completed with a 10-min incubation at 72° C. Primers were selected to amplify a 728 bp probe spanning a section of the HSV1 UL15 open reading frame (nucleotides 249–977). Single-stranded transcripts were purified with Promega M13 Wizard kits. The final product was mixed 1:1 with a mixture of 6 M GuSCN, 100 mM EDTA and 200 μg/mL herring sperm DNA and stored at 4° C.
The capture DNA plasmid (HSV UL13 region in pUC) was linearized by cutting with Xba I, denatured for 15 min at 95° C. and diluted immediately into Reacti-Bind DNA Coating Solution (Pierce, 17250, diluted 1:1 with TE buffer, pH 8) at 1 ng/μL 75 μL/well were added to Corning (#3922 or 9690) white 96-well plates and incubated at room temperature for at least 4 hrs before washing twice with 300 μL/well 0.2×SSC/0.05% Tween-20 (SSC/T buffer). The plates were then incubated overnight at room temperature with 150 μL/well 0.2 N NaOH, 1% IGEPAL and 10 μg/mL herring sperm DNA.
Twenty-seven (27) μL of cell lysate was combined with 45 μL of hybridization solution (final concentration: 3M GuSCN, 50 mM EDTA, 100 μg/ml salmon sperm DNA, 5× Denhardt's solution, 0.25×APE, and 5 ng of the digoxigenin-labeled detection probe). APE is 1.5 M NH4-acetate, 0.15 M ammonium phosphate monobasic, and 5 mM EDTA adjusted to pH 6.0. Mineral oil (50 μL) was added to prevent evaporation. The hybridization plates were incubated at 95° C. for 10 minutes to denature the DNA, then incubated at 42° C. overnight. The wells were washed 6× with 300 μL/well SSC/T buffer then incubated with 75 μL/well anti-digoxigenin-HRP-conjugated antibody (Boehringer Mannheim 1207733, 1:5000 in TE) for 30 min at room temperature. The wells were washed 6× with 300 μL/well with PBS/0.05% Tween-20 before 75 μL/well SuperSignal LBA substrate (Pierce) was added. The plates were incubated at room temperature for 30 minutes and chemiluminescence was measured in a Wallac Victor reader.
The following results were obtained for HSV-1.
One may read the IC50 as the concentration that inhibits the measured activity by half. The low end stands for greater potency in that assay, the high end for weaker potency in that assay. For `CC(C)Cc1nn2c(NC3CCCC3)cccc2c1-c1ccnc(NC2CCCC2)n1` [Example 10, N-Cyclopentyl-3-[2-(cyclopentylamino)pyrimidin-4-yl]-2-isobutylpyrazolo[1,5-a]pyridin-7-amine], the IC50 amounted to 0.5 µM.

For `CC(C)Cc1nn2ccccc2c1-c1ccnc(NC2CCCC2)n1` [Example 7, N-Cyclopentyl-4-(2-isobutylpyrazolo[1,5-a]pyridin-3-yl)pyrimidin-2-amine], the midpoint of inhibition, the IC50, lay at 18 µM. This IC50 lies about 36-fold higher than the previous one.

`CCCc1nn2ccccc2c1-c1ccnc(NC2CCCC2)c1` [Example 2, N-Cyclopentyl-4-(2-propylpyrazolo[1,5-a]pyridin-3-yl)pyridin-2-amine]: the IC50 amounted to 8 µM.

Molecule `COCc1nn2ccccc2c1-c1ccnc(NC2CCCC2)n1` [Example 20, N-Cyclopentyl-4-[2-(methoxymethyl)pyrazolo[1,5-a]pyridin-3-yl]-2-pyrimidinamine] registered an IC50 of 15 µM.

`O=C(c1ccccc1)c1nn2c(NC3CCCC3)cccc2c1-c1ccnc(NC2CCCC2)n1` [Example 16, {7-(Cyclopentylamino)-3-[2-(cyclopentylamino)-4-pyrimidinyl]-pyrazolo[1,5-a]pyridin-2-yl}(phenyl)methanone] registered an IC50 of 0.4 µM.
